Test results taken from US10583119B2, “Compounds, compositions and methods for making the same” (Signum Biosciences, Inc., priority 2008, dated 2020).

Experiments:
PP2A = target: T1, PP2A (Homo sapiens, UniProt P67775); assay: Phosphatase activity of PP2A using pNPP as substrate; format: biochemical; settings: un-methylated PP2A, non-protein substrate pNPP, absence of ME and MT
T1 construct: made in house
Protocol: PP2A (10-200 nM) and pNPP (5-10 mM, Sigma) were mixed into 96-well plate (Fisher Scientific Inc.) in 50 μL of the buffer required. Reactions were performed at room temperature, and fully stopped by adding equal volume of 0.1 M EDTA. Production of p-nitrophenol […] was quantified by absorbance of reaction mixtures at 405 nm using the VMax® microplate reader (Molecular Devices).

[1] = tested on: Thyl-alpha-synuclein transgenic mice; assay: Locomotor tests (open field, rota-rod) in alpha-synuclein over-expressing mice; format: in vivo; settings: 0.001% diet (p=0.068)
Protocol: Transgenic mice over-expressing the full length human alpha-synuclein have been described previously, and are excellent models for sensorimotor tests that are sensitive to alterations in the nigrostriatal dopaminergic system [Fleming, S. M. et. al, J. Neurosci. 24, 9434-40, (2004)].
Thyl-alpha-synuclein transgenic mice (9-12 weeks old) and age-matched wild type mice were housed in clear plastic cages in a temperature-, and humidity-controlled environment with a 12 hour-light/dark cycle (light switched on at 7 a.m.), and were maintained on an ad libitum diet of lab chow and water. The animal feeds used were either normal (Control) or formulated with Compound I-63 at 0.001% and 0.1%. […]
Locomotor activity was assessed in an open field paradigm by a Digiscan activity monitor utilizing a grid of infrared beams that record the location and path of the animal (horizontal activity) as well as the number of rearing movements (vertical activity). […] Each mouse was then placed in the middle of an open field chamber (42×42 cm acrylic animal cages, AccuScan Instruments) and locomotion was recorded for 10 min. The infrared light beam sensors were connected to a computer that recorded animal position every millisecond. […] The total number of squares crossed by each mouse was recorded and average horizontal and vertical activities was determined for each group of mice. […]

[2] = tested on: MPTP Mouse Model of Parkinson's Disease; assay: MPTP-induced neurotoxicity in MPTP mouse model of Parkinson's disease (striatal tyrosine hydroxylase ELISA); format: in vivo, C57BL/6J mice; settings: acute MPTP 10 mg/kg four times, striatum
Excerpt: MPTP (1-methyl-4-phenyl-1,2,3,6-tetrahydropyridine) is routinely used as a chemical agent that induces Parkinson's disease-like neurodegeneration in cellular and animal models. Both Parkinson's Disease and MPTP-induced neurotoxicity are associated with a number of different biomarkers including reduction of tyrosine hydroxylase levels and activity. Tyrosine hydroxylase is a key enzyme in the dopamine biosynthesis pathway as it is involved in the conversion of tyrosine to […]. Tyrosine hydroxylase activity is regulated by its phosphorylation status and PP2A is known to be involved in this regulation.
C57BL/6J mice, aged 2-3 months were fed ad libitum, either standard rodent chow (Control), or rodent chow formulated with 0.1 g Compound I-63, or 0.001 g Compound I-63 per 100 g chow (0.1% and 0.001% Compound I-63, respectively); water was changed weekly. Mice were housed at 23° C., on a 12 hour light and dark cycle, with 6 mice per cage. After 2 weeks, 8-12 mice each from the Control, 0.1% Compound 1-63 and 0.001% Compound I-63 groups were injected with either saline, or 10 mg/kg MPTP i.e., four times, every 2 hours, on the same day. Mice were then maintained on their respective feeds for another week, at which point they were sacrificed by cervical dislocation and brains dissected for biochemical analyses.
Striatal tyrosine hydroxylase (TH) content was measured by ELISA as follows. Ninety-six well microliter plates (Thermo Labsystems) were incubated overnight at 4° C. with monoclonal anti-TH antibody (1:500; Calbiochem) in 8 mM sodium phosphate, 2 mM potassium phosphate, and 0.14 M sodium chloride, pH 7.4 (PBS). Wells were washed four times with PBS and then blocked for 1 hour using 5% (w/v) Carnation (Nestle) nonfat dry milk in PBS. Striatal tissue samples were homogenized by sonication in PBS-0.5% Triton X-100 (PBST) with 0.25% (w/v) SDS. […] The reaction product was measured fluorometrically within the linear range of detection (excitation:emission ratio of 530:580 nm). […] Data were expressed as percent TH levels in MPTP-treated mice relative to saline-injected mice. […]

T1 sequence (P67775 whole entry): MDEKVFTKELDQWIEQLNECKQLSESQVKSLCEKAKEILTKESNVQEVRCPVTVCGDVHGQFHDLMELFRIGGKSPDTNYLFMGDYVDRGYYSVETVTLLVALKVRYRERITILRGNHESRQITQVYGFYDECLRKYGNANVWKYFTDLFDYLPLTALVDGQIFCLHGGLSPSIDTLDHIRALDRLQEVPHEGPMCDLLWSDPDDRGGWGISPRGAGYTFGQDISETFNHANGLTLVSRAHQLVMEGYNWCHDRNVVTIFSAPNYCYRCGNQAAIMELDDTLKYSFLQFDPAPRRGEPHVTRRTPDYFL
T1 sequence (P30153 whole entry partner): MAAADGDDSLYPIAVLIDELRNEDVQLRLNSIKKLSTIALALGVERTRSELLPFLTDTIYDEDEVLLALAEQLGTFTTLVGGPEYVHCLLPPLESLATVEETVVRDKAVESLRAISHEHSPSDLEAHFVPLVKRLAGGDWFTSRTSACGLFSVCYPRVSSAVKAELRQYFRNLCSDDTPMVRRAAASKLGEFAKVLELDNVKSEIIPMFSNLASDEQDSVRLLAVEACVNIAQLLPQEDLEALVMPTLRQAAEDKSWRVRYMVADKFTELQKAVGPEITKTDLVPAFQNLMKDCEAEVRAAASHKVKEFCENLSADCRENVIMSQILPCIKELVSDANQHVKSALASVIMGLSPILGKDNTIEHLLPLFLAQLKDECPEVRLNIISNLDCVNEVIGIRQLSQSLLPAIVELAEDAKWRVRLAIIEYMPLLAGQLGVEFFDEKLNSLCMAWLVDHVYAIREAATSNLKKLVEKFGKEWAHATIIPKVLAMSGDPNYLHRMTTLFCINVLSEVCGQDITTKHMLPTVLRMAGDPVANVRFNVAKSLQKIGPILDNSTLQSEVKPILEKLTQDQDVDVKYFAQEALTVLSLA

IC50 (PP2A): > 100 µM
Compound: CCCCCCCCCCCCCCCCCCCC(=O)NCCc1c[nH]c2ccc(O)cc12 [Compound I-63, N-(2-(5-hydroxy-1H-indol-3-yl)ethyl)icosanamide]
horizontal activity [1]: increase | rescuing of the tyrosine hydroxylase defect ([2]; 0.001% diet): approximately 20% | rescuing of the tyrosine hydroxylase defect ([2]; 0.1% diet): approximately 20%
